Legend:
[1] = test system: C5a induced human PMN chemotaxis; assay: C5a induced chemotaxis of human PMNs (microchamber assay); format: cell-based; details: for inhibition at 0.1 µM / inhibition at 0.01 µM: Homo sapiens, read-out: % inhibition C5a induced PMN migration; for inhibition at 0.1 µM: drug concentration: 10^−7 M (footnote a); for inhibition at 0.01 µM: drug concentration: 10^−8 M (footnote b); for inhibitory activity on C5a: compounds lacking the additional hydrogen bond acceptor group
Experimental: The compounds of the invention of formula (I) were evaluated in vitro for their ability to inhibit chemotaxis of polymorphonucleate leukocytes (hereinafter referred to as PMNs) and monocytes induced by the fractions of the complement C5a and C5a-desArg. For this purpose, to isolate the PMNs from heparinized human blood, taken from healthy adult volunteers, mononucleates were removed by means of sedimentation on dextran (according to the procedure disclosed by W. J. Ming et al., J. Immunol., 138, 1469, 1987) and red blood cells by a hypotonic solution. The cell vitality was calculated by exclusion with Trypan blue, whilst the ratio of the circulating polymorphonucleates was estimated on the cytocentrifugate after staining with Diff Quick.
Human recombinant fractions C5a and C5a-desArg (Sigma) were used as stimulating agents in the chemotaxis experiments, giving practically identical results.
The lyophilized C5a was dissolved in a volume of HBSS containing 0.2% bovin serum albumin BSA so thus to obtain a stock solution having a concentration of 10^−5 M to be diluted in HBSS to a concentration of 10^−9 M, for the chemotaxis assays.
In the chemotaxis experiments, the PMNs were incubated with the compounds of the invention of formula (I) for 15′ at 37° C. in an atmosphere containing 5% CO2. The chemotactic activity of the C5a was evaluated on human circulating polymorphonucleates (PMNs) resuspended in HBSS at a concentration of 1.5×10^6 PMNs per mL.
During the chemotaxis assay (according to W. Falket et al., J. Immunol. Methods, 33, 239, 1980) PVP-free filters with a porosity of 5 μm and microchambers suitable for replication were used.
The compounds of the invention in formula (I) were evaluated at a concentration ranging between 10^−7 and 10^−10 M; for this purpose they were added, at the same concentration, both to the lower pores and the upper pores of the microchamber. The wells in the lower part contain the solution of C5a or the simple carrier, those in the upper part contain the suspension of PMNs.
Inhibition of C5a-induced chemotactic activity by the individual compounds of the invention of formula (I) was evaluated by incubating the microchamber for the chemotaxis for 60 min at 37° C. in an atmosphere containing 5% CO2.
By way of example, the inhibition data of the chemotaxis of PMN (concentration range between 10^−7 and 10^−8 M) of some representative compounds of the invention are reported in Table 2.

[2] = test system: CXCL8 induced human PMN chemotaxis; assay: IL-8 (CXCL8) induced PMN chemotaxis; format: cell-based; details: drug concentration 10^−8M, Table 1
[3] = test system: C5a induced human PMN chemotaxis; details: previously reported; cited from earlier work
[4] = test system: C5a induced human PMN chemotaxis; assay: C5a induced chemotaxis of human PMNs (microchamber assay); format: cell-based; details: for inhibitory activity on C5a induced PMN chemotaxis at high drug concentration: c=10^−6M; for C5a (10^−6M): drug concentration 10^−6M, PMN chemotaxis, Table 1, n.a. = not active

| Structure (SMILES) | inhibition at 0.1 µM [1] | inhibition at 0.01 µM [1] | other results |
| --- | --- | --- | --- |
| C[C@@H](C(N)=O)c1cccc(C(=O)c2ccco2)c1 [Example 3] | 65 ± 6% | – | – |
| C[C@@H](C(=O)Nc1nccs1)c1cccc(C(=O)c2ccco2)c1 [Example 27, (R)-2-[3-(furan-2-carbonyl)phenyl]-N-(2H-thiazol-2-yl)propionamide] | – | 60 ± 5% | – |
| CC(C)Cc1ccc([C@@H](C)C(N)=O)cc1 [(R)-2-(4-isobutylphenyl)propionamide, reference compound] | – | – | inhibitory activity on C5a [1]: do not exhibit any inhibitory activity; IL-8 (10^−8M) [2]: 57 ± 12 |
| C[C@@H](C(=O)NCC(=O)O)c1cccc(C(=O)c2ccco2)c1 [Example 34] | 51 ± 7% | – | – |
| C[C@@H](C(N)=O)c1cccc(-c2ncco2)c1 [Example 14] | 63 ± 9% | – | – |
| C[C@@H](C(N)=O)c1cccc(C(=O)Nc2ncccc2Cl)c1 [Example 9, 3-((R)-1-carbamoylethyl)-N-(3-chloropyridin-2-yl)benzamide] | 40 ± 2% | – | – |
| CC(NC(=O)[C@H](C)c1cccc(C(=O)c2ccco2)c1)C(=O)O (stereo partly drawn) [Example 33, 2-{(R)-2-[3-(furan-2-carbonyl)phenyl]propionylamino}propionic acid] | 40 ± 5% | – | – |
| C[C@@H](C(=O)NS(C)(=O)=O)c1cccc(C(=O)c2ccco2)c1 [Example 21] | – | 61 ± 15% | – |
| C[C@@H](C(=O)NS(C)(=O)=O)c1cccc(C(=O)c2ccccc2)c1 [N-[(R)-2-(3-benzoylphenyl)propionyl]methanesulfonamide] | – | – | IL-8 (10^−8M) [2]: 38 ± 5; activity on the C5a induced PMN chemotaxis [3]: negligible activity; inhibitory activity on C5a induced PMN chemotaxis at high drug concentration [4]: moderate inhibitory activity; C5a (10^−6M) [4]: 20 ± 5 |
| C[C@@H](C(N)=O)c1cccc(C(=O)c2ncco2)c1 [Example 6, (R)-2-[3-(1,3-oxazol-2-ylcarbonyl)phenyl]propionamide] | – | 26 ± 6% | – |
| C[C@@H](C(=O)Nc1nc(C(F)(F)F)cs1)c1cccc(C(=O)c2ccco2)c1 [Example 28, (R)-2-[3-(furan-2-carbonyl)phenyl]-N-(4-trifluoromethyl-2H-thiazol-2-yl)propionamide] | – | 49 ± 9% | – |
| CC(C(N)=O)c1cccc(NC(=O)c2ccccc2)c1 (stereo not drawn) [Example 19, 2-(3-benzoylamino)phenyl propionamide] | 34 ± 11% | – | – |
| Cc1ccc(C(=O)c2cccc([C@@H](C)C(=O)NS(C)(=O)=O)c2)o1 [Example 22] | – | 53 ± 6% | – |
| C[C@@H](C(=O)NS(C)(=O)=O)c1cccc(C(=O)c2cc3ccccc3o2)c1 [Example 24] | – | – | % inhibition C5a induced PMN migration ([1]; drug concentration not marked): 53 ± 5% |
| C[C@@H](C(N)=O)c1cccc(-c2ccco2)c1 [Example 15] | 41 ± 7% | – | – |
| C[C@@H](C(=O)Nc1nc(C(F)(F)F)cs1)c1cccc(C(=O)c2cc3ccccc3o2)c1 [Example 29, (R)-2-[3-(benzofuran-2-carbonyl)phenyl]-N-(4-trifluoromethyl-2H-thiazol-2-yl)propionamide] | 40 ± 12% | – | – |
| CC(C)Cc1ccc([C@@H](C)C(=O)NS(C)(=O)=O)cc1 [N-[(R)-2-(4-isobutylphenyl)propionyl]methanesulfonamide, reference compound] | – | – | inhibitory activity on C5a [1]: do not exhibit any inhibitory activity; IL-8 (10^−8M) [2]: 65 ± 5 |
| C[C@@H](C(=O)NS(C)(=O)=O)c1cccc(C(=O)C2CCCC2)c1 [Example 20, N—[(R)-2-(3-cyclopentanecarbonylphenyl)propionyl]methanesulfonamide] | 22 ± 2% | – | – |
| C[C@@H](C(N)=O)c1cccc(C(=O)c2cc3ccccc3o2)c1 [Example 4, (R)-2-[3-(2-benzofuran-2-carbonyl)phenyl]propionamide] | – | 55 ± 7% | – |
| Cc1cccc(C)c1NC(=O)c1cccc([C@@H](C)C(N)=O)c1 [Example 8, 3-((R)-1-carbamoylethyl)-N-(2,6-dimethylphenyl)benzamide] | 65 ± 10% | – | – |

| Structure (SMILES) | inhibition at 0.1 µM [1] | inhibition at 0.01 µM [1] | other results |
| --- | --- | --- | --- |
| C[C@@H](C(=O)NO)c1cccc(C(=O)c2ccco2)c1 [Example 31, (R)-2-[3-(furan-2-carbonyl)phenyl]-N-hydroxypropionamide] | – | 70 ± 5% | – |
| C[C@@H](C(N)=O)c1cccc(C(=O)C2CCCC2)c1 [Example 2, (R)-2-[3-(cyclopentanecarbonyl)phenyl]propionamide] | 59 ± 16% | – | – |
| C[C@@H](C(=O)NS(C)(=O)=O)c1cccc(C(=O)c2ncco2)c1 [Example 25] | 38 ± 8% | – | – |
| C[C@@H](C(=O)Nc1ccccn1)c1cccc(C(=O)C2CCCC2)c1 [Example 30, (R)-2-(3-cyclopentanecarbonylphenyl)-N-pyrid-2-ylpropionamide] | – | 51 ± 5% | – |
| C[C@@H](C(N)=O)c1cccc(Nc2ccccn2)c1 [Example 13, (R)-2-[3-(pyridin-2-ylamino)phenyl]propionamide] | 38 ± 3% | – | – |
| C[C@@H](C(N)=O)c1cccc(S(=O)(=O)c2ccccc2)c1 [Example 17, (R)-2-(3-benzenesulfonylphenyl)propionamide] | 54 ± 7% | – | – |
| COc1ccccc1Nc1cccc([C@@H](C)C(N)=O)c1 [Example 12, (R)-2-[3-(2-methoxyphenylamino)phenyl]propionamide] | 60 ± 8% | – | – |
| C[C@@H](C(=O)Nc1ccccn1)c1cccc(C(=O)c2ccco2)c1 [Example 26, (R)-2-[3-(furan-2-carbonyl)phenyl]-N-pyrid-2-yl propionamide] | – | 45 ± 9% | – |
| COc1ccccc1Oc1cccc([C@@H](C)C(N)=O)c1 [Example 10, (R)-2-[3-(2-methoxyphenoxy)phenyl]propionamide] | – | 55 ± 6% | – |
| C[C@@H](C(N)=O)c1cccc(C(=O)c2nccs2)c1 [Example 5, (R)-2-[3-(thiazole-2-ylcarbonyl)phenyl]propionamide] | – | 31 ± 7% | – |
| C[C@@H](C(N)=O)c1cccc(C(=O)Nc2c(Cl)cccc2Cl)c1 [Example 7, 3-((R)-1-carbamoylethyl)-N-(2,6-dichlorophenyl)benzamide] | 57 ± 8% | – | – |
| C[C@@H](C(N)=O)c1ccc2c(c1)NC(=O)CC2 [Example 16, (R)-2-(oxo-1,2,3,4-tetrahydroquinolin-7-yl)propionamide] | – | 45 ± 10% | – |
| CC(=O)Nc1cccc(C(C)C(N)=O)c1 (stereo not drawn) [Example 18, 2-(3-acetylamino)phenyl propionamide] | 83 ± 2% | – | – |
| C[C@@H](C(N)=O)c1cccc(C(=O)c2ccccc2)c1 [(R)-2-(3-benzoylphenyl)propionamide] | – | – | IL-8 (10^−8M) [2]: 37 ± 7; activity on the C5a induced PMN chemotaxis [3]: negligible activity; inhibitory activity on C5a induced PMN chemotaxis at high drug concentration [4]: moderate inhibitory activity; C5a (10^−6M) [4]: 30 ± 2 |
| CC(C)C(=O)c1cccc([C@@H](C)C(N)=O)c1 [Example 1, (R)-2-[3-(isobutyryl)phenyl]propionamide] | 50 ± 7% | – | – |
| C[C@@H](C(N)=O)c1cccc(Nc2ccccc2Cl)c1 [Example 11, (R)-2-[3-(2-chlorophenylamino)phenyl]propionamide] | 42 ± 5% | – | – |
| CC(C)c1cccc([C@@H](C)C(N)=O)c1 [(R)-2-(3-isopropylphenyl)propionamide, reference compound] | – | – | inhibitory activity on C5a [1]: do not exhibit any inhibitory activity; IL-8 (10^−8M) [2]: 60 ± 5 |
| C[C@@H](C(=O)NS(C)(=O)=O)c1cccc(C(=O)c2cccs2)c1 [Example 23] | 37 ± 11% | – | – |
| C[C@@H](C(=O)NO)c1cccc(C(=O)c2nccs2)c1 [Example 32, (R)-2-[3-(thiazole-2-carbonyl)phenyl]-N-hydroxypropionamide] | – | 30 ± 2% | – |

From patent US7939521B2, “2-arylpropionic acid derivatives and pharmaceutical compositions containing them” (DompePHA.R.MA S.p.A., priority 2004, dated 2011)
